PMC9738913 (2022)

System: d(GC)9 duplex (d(GC)9d(GC)9) (DNA, duplex) GCGCGCGCGCGCGCGCGC
Test: fluorescence quenching and UV-vis absorption red shift
Settings: 100 mM NaCl, 50 mM sodium phosphate; PBS pH 7.4, room temperature; 5 μM proflavine, 2.5 μM DNA; intercalation

Nc1ccc2cc3ccc(N)cc3nc2c1
binding: yes
